≈ marks a conversion by molar mass, not a printed value. Structures can show the parent of a compound that is named as a salt. Where two headings read alike, the source gives them in different places.
Assays:
S. aureus Terajima = assay: Antibacterial activity (MIC), standard agar dilution streak method; type: cell-based, Staphylococcus aureus; details: for MIC: Staphylococcus aureus, read-out: Minimum inhibitory concentration
Method: (§1) The antibacterial activities of the compounds of the present invention were assayed by the standard agar dilution streak method against Gram-positive and Gram-negative bacteria [Chemotherapy, 22, 1126 (1974)].

[1] = test system: Klebsiella pneumoniae IFO 3512; assay: as above; type: cell-based; details: Klebsiella pneumoniae IFO 3512; for MIC: IFO3512, read-out: Minimum inhibitory concentration
Method: as §1

S. epidermidis IID 866 = assay: as above; type: cell-based; details: for MIC: Staphylococcus epidermidis, IID866, read-out: Minimum inhibitory concentration
Method: as §1

[2] = test system: Bacillus subtilis PCI 219; assay: as above; type: cell-based; details: PCI219; for MIC: read-out: Minimum inhibitory concentration
Method: as §1

P. morganii IID 602 = assay: as above; type: cell-based; details: for MIC: Morganella morganii, read-out: Minimum inhibitory concentration
Method: as §1

[3] = test system: Yersinia enterocolitica IID 981; assay: as above; type: cell-based; details: Yersinia enterocolitica IID 981; for MIC: IID981, read-out: Minimum inhibitory concentration
Method: as §1

[4] = test system: Salmonella enteritidis IID 604; assay: as above; type: cell-based; details: for MIC: Salmonella enterica, read-out: Minimum inhibitory concentration
Method: as §1

P. mirabilis IID 994 = assay: as above; type: cell-based; details: Proteus mirabilis, IID994, read-out: Minimum inhibitory concentration
Method: as §1

Proteus vulgaris 3167 = assay: as above; type: cell-based; details: Proteus vulgaris 3167; for MIC: read-out: Minimum inhibitory concentration
Method: as §1

[5] = test system: Enterobacter cloacae IID 977; assay: as above; type: cell-based; details: Enterobacter cloacae IID 977; for MIC: IID977, read-out: Minimum inhibitory concentration
Method: as §1

[6] = test system: Acinetobacter anitratus IID 876; assay: as above; type: cell-based; details: for MIC: Acinetobacter calcoaceticus, IID876, read-out: Minimum inhibitory concentration
Method: as §1

[7] = test system: Citrobacter freundii IID 976; assay: as above; type: cell-based; details: Citrobacter freundii IID 976; for MIC: IID976, read-out: Minimum inhibitory concentration
Method: as §1

[8] = test system: Serratia marcescens IID 618; assay: as above; type: cell-based; details: Serratia marcescens IID 618; for MIC: IID618, read-out: Minimum inhibitory concentration
Method: as §1

[9] = test system: Escherichia coli NIHJ JC-2; assay: as above; type: cell-based; details: Escherichia coli NIHJ JC-2; for MIC: NIHJJC2, read-out: Minimum inhibitory concentration
Method: as §1

[10] = test system: Alcaligenes faecalis 0104002; assay: as above; type: cell-based; details: Alcaligenes faecalis 0104002; for MIC: read-out: Minimum inhibitory concentration
Method: as §1

[11] = test system: Staphylococcus aureus 209 p; assay: as above; type: cell-based; details: read-out: Minimum inhibitory concentration
Method: as §1

[12] = test system: Pseudomonas aeruginosa V-1; assay: as above; type: cell-based; details: read-out: Minimum inhibitory concentration
Method: as §1

P. aeruginosa IFO 12689 = assay: as above; type: cell-based, Pseudomonas aeruginosa; details: for MIC: Pseudomonas aeruginosa, IFO12689, P. aeruginosa IFO 12689, read-out: Minimum inhibitory concentration
Method: as §1

E. coli ATCC 10536 = assay: as above; type: cell-based, Escherichia coli; details: for MIC: Escherichia coli, ATCC10536, read-out: Minimum inhibitory concentration
Method: as §1

Shigella sonnei IID 969 = assay: microbe, parasite or virus in culture; type: cell-based; details: for MIC: read-out: Minimum inhibitory concentration
Method: as §1

gram-negative bacteria = details: prior art statement; cited from earlier work
Pseudomonas aeruginosa = details: prior art statement; cited from earlier work
gram-positive bacteria = details: prior art statement; cited from earlier work

CCn1cc(C(=O)O)c(=O)c2cc(F)c(N3CCC(O)CC3)c(F)c21 [Example 16, 1-Ethyl-6,8-difluoro-1,4-dihydro-7-(4-hydroxy-1-piperidinyl)-4-oxoquinoline-3-carboxylic acid silver salt]
Minimum inhibitory concentration (S. aureus Terajima; S. aureus Terajima): 0.39 µg/mL | Minimum inhibitory concentration [1]: 0.10 µg/mL | Minimum inhibitory concentration (S. epidermidis IID 866): 0.39 µg/mL | Minimum inhibitory concentration ([2]; Bacillus subtilis): ≤ 0.05 µg/mL | Minimum inhibitory concentration (P. morganii IID 602; P. morganii IID 602): 1.56 µg/mL | Minimum inhibitory concentration [3]: 1.56 µg/mL | Minimum inhibitory concentration ([4]; Salmonella enteritidis IID 604): 1.56 µg/mL | MIC (P. mirabilis IID 994; P. mirabilis IID 994): 0.39 µg/mL | Minimum inhibitory concentration (Proteus vulgaris 3167): 0.10 µg/mL | Minimum inhibitory concentration [5]: 3.13 µg/mL | Minimum inhibitory concentration [6]: 1.56 µg/mL | Minimum inhibitory concentration [7]: 1.56 µg/mL | Minimum inhibitory concentration [8]: 3.13 µg/mL | Minimum inhibitory concentration [9]: 0.78 µg/mL | Minimum inhibitory concentration [10]: 3.13 µg/mL | MIC ([11]; Staphylococcus aureus 209 p): 0.2 µg/mL | MIC ([12]; V1, Pseudomonas aeruginosa V-1): 3.13 µg/mL | Minimum inhibitory concentration (P. aeruginosa IFO 12689; P. aeruginosa IFO 12689): 25 µg/mL | Minimum inhibitory concentration (E. coli ATCC 10536): 0.78 µg/mL | Minimum inhibitory concentration (Shigella sonnei IID 969; Shigella sonnei IID 969): 0.39 µg/mL

Cl.O=C(O)c1cn(CCF)c2c(F)c(N3CCNCC3)c(F)cc2c1=O [Example 4, 6,8-Difluoro-1-(2-fluoroethyl)-1,4-dihydro-4-oxo-7-(1-piperazinyl)quinoline-3-carboxylic acid hydrochloride]
MIC (S. aureus Terajima; S. aureus Terajima): 3.13 µg/mL | MIC [1]: ≤ 0.05 µg/mL | MIC (S. epidermidis IID 866): 1.56 µg/mL | MIC ([2]; Bacillus subtilis PCI 219): 0.39 µg/mL | MIC (P. morganii IID 602; IID602, P. morganii IID 602): 0.2 µg/mL | MIC [3]: 0.05 µg/mL | MIC ([4]; Salmonella enteritidis IID 604): 0.05 µg/mL | MIC (P. mirabilis IID 994; P. mirabilis IID 994): ≤ 0.05 µg/mL | MIC (Proteus vulgaris 3167): ≤ 0.05 µg/mL | MIC [5]: ≤ 0.05 µg/mL | MIC [6]: 3.13 µg/mL | MIC [7]: ≤ 0.05 µg/mL | MIC [8]: 0.39 µg/mL | MIC [9]: ≤ 0.05 µg/mL | MIC [10]: 3.13 µg/mL | MIC ([11]; Staphylococcus aureus 209 p): 3.13 µg/mL | MIC ([12]; Pseudomonas aeruginosa, V1, Pseudomonas aeruginosa V-1): 6.25 µg/mL | MIC (P. aeruginosa IFO 12689): 1.56 µg/mL | MIC (E. coli ATCC 10536): 0.1 µg/mL | MIC (Shigella sonnei IID 969; Shigella sonnei, IID969, Shigella sonnei IID 969): ≤ 0.05 µg/mL

CCn1cc(C(=O)O)c(=O)c2cnc(N3CCCC3)nc21 [piromidic acid]
effectiveness in the therapy of infections due to gram-negative bacteria (gram-negative bacteria): highly effective | activities against Pseudomonas aeruginosa (Pseudomonas aeruginosa): weak activities | activities against most gram-positive bacteria (gram-positive bacteria): weak activities

CCN1CCN(c2c(F)cc3c(=O)c(C(=O)O)cn(CC)c3c2F)CC1 [Example 7, 1-Ethyl-7-(4-ethyl-1-piperazinyl)-6,8-difluoro-1,4-dihydro-4-oxoquinoline-3-carboxylic acid]
MIC (S. aureus Terajima): 0.78 µg/mL (≈ 2.13 µM) | MIC [1]: ≤ 0.05 µg/mL | MIC (S. epidermidis IID 866): 0.78 µg/mL (≈ 2.13 µM) | MIC ([2]; Bacillus subtilis): 0.1 µg/mL (≈ 0.274 µM) | MIC (P. morganii IID 602; IID602): 0.39 µg/mL (≈ 1.07 µM) | MIC [3]: 0.2 µg/mL (≈ 0.547 µM) | MIC [4]: 0.39 µg/mL (≈ 1.07 µM) | MIC (P. mirabilis IID 994): 0.2 µg/mL (≈ 0.547 µM) | MIC (Proteus vulgaris 3167): ≤ 0.05 µg/mL | MIC [5]: 0.39 µg/mL (≈ 1.07 µM) | MIC [6]: 0.39 µg/mL (≈ 1.07 µM) | MIC [7]: 0.2 µg/mL (≈ 0.547 µM) | MIC [8]: 0.39 µg/mL (≈ 1.07 µM) | MIC [9]: ≤ 0.05 µg/mL | MIC [10]: 1.56 µg/mL (≈ 4.27 µM) | MIC ([11]; Staphylococcus aureus, 209P): 0.78 µg/mL (≈ 2.13 µM) | MIC ([12]; Pseudomonas aeruginosa, V1): 6.25 µg/mL (≈ 17.1 µM) | MIC (P. aeruginosa IFO 12689): 6.25 µg/mL (≈ 17.1 µM) | MIC (E. coli ATCC 10536): 0.1 µg/mL (≈ 0.274 µM) | MIC (Shigella sonnei IID 969; IID969, Shigella sonnei IID 969): 0.1 µg/mL (≈ 0.274 µM)

From patent publication US4398029A, “Quinoline carboxylic acid derivatives and process for the preparation” (Kyorin Seiyaku Kabushiki Kaisha, priority 1981, dated 1983)
